Reference: patent US8618085B2, “Therapeutic formulations of desoxyepothilones” (Koasn Biosciences Incorporated, priority 2000, dated 2013)

Experiment: Dilution stability of epothilone D formulations, visual appearance
Assay type: physicochemical
Set-up: key: remained clear; ppt: precipitation; xtal: crystallization
Details: for Visual Appearance RODI Dilution 0 h / Visual Appearance RODI Dilution 12 h / Visual Appearance RODI Dilution 24 h / Visual Appearance RODI Dilution 36 h / Visual Appearance RODI Dilution 48 h: 1:10 into RODI water; for Visual Appearance Initial: undiluted
Method: The dilution stability of epothilone D formulations at 8-20 mg/mL in various formulations was examined. A stock solution of epothilone D (100 mg/mL) was prepared in ethanol. Epothilone D formulations were prepared as listed in the following tables by addition of the requisite amount of ethanol, PEG400, 10% Tween® 80, and either propylene glycol or glycerol to the appropriate volume of the epothilone D stock solution. The solubility of epothilone D in each vial was observed visually following gentle swirling. Each formulation was syringe filtered through a 0.2 micron PVDF filter. Each formulation was subsequently diluted 1:8, 1:10, or 1:12 in reverse osmosis deionized water (RODI) or 0.9% saline. Visual observations were taken upon preparation, upon dilution, and both 1 and 24 hours after incubation at ambient temperature.
The dilution stability up to 48 hours post-dilution was examined for the above formulations containg 8-11 mg/mL of epothilone D after 1:10 dilution into either RODI water or 0.45% saline, as summarized in Tables 12 and 13 below.

[1] = 8 mg/mL epo D in 10% Tween 80, 50% ethanol, 30% PEG400, 10% propylene glycol
[2] = 8 mg/mL epo D in 10% Tween 80, 50% ethanol, 30% PEG400, 10% propylene glycol, 0.9% saline
[3] = 8 mg/mL epo D in 10% Tween 80, 50% ethanol, 30% PEG400, 10% propylene glycol, 1:10 into 0.45% saline
[4] = 8 mg/mL epo D in 10% Tween 80, 60% ethanol, 20% PEG400, 10% glycerol
[5] = 8 mg/mL epo D in 10% Tween 80, 60% ethanol, 20% PEG400, 10% glycerol, 0.9% saline
[6] = 8 mg/mL epo D in 10% Tween 80, 60% ethanol, 20% PEG400, 10% glycerol, 1:10 into 0.45% saline
[7] = 9 mg/mL epo D in 10% Tween 80, 50% ethanol, 30% PEG400, 10% propylene glycol, 1:10 into 0.45% saline
[8] = 9 mg/mL epo D in 10% Tween 80, 50% ethanol, 30% PEG400, 10% propylene glycol
[9] = 9 mg/mL epo D in 10% Tween 80, 60% ethanol, 20% PEG400, 10% glycerol, 1:10 into 0.45% saline
[10] = 9 mg/mL epo D in 10% Tween 80, 60% ethanol, 20% PEG400, 10% glycerol
[11] = 10 mg/mL epo D in 10% Tween 80, 50% ethanol, 30% PEG400, 10% propylene glycol
[12] = 10 mg/mL epo D in 10% Tween 80, 50% ethanol, 30% PEG400, 10% propylene glycol, 0.9% saline
[13] = 10 mg/mL epo D in 10% Tween 80, 50% ethanol, 30% PEG400, 10% propylene glycol, 1:10 into 0.45% saline
[14] = 10 mg/mL epo D in 10% Tween 80, 60% ethanol, 20% PEG400, 10% glycerol
[15] = 10 mg/mL epo D in 10% Tween 80, 60% ethanol, 20% PEG400, 10% glycerol, 0.9% saline
[16] = 10 mg/mL epo D in 10% Tween 80, 60% ethanol, 20% PEG400, 10% glycerol, 1:10 into 0.45% saline
[17] = 11 mg/mL epo D in 10% Tween 80, 50% ethanol, 30% PEG400, 10% propylene glycol, 1:10 into 0.45% saline
[18] = 11 mg/mL epo D in 10% Tween 80, 50% ethanol, 30% PEG400, 10% propylene glycol
[19] = 11 mg/mL epo D in 10% Tween 80, 60% ethanol, 20% PEG400, 10% glycerol, 1:10 into 0.45% saline
[20] = 11 mg/mL epo D in 10% Tween 80, 60% ethanol, 20% PEG400, 10% glycerol
[21] = 12 mg/mL epo D in 10% Tween 80, 50% ethanol, 30% PEG400, 10% propylene glycol
[22] = 12 mg/mL epo D in 10% Tween 80, 50% ethanol, 30% PEG400, 10% propylene glycol, 0.9% saline
[23] = 12 mg/mL epo D in 10% Tween 80, 60% ethanol, 20% PEG400, 10% glycerol
[24] = 12 mg/mL epo D in 10% Tween 80, 60% ethanol, 20% PEG400, 10% glycerol, 0.9% saline
[25] = 16 mg/mL epo D in 10% Tween 80, 50% ethanol, 30% PEG400, 10% propylene glycol
[26] = 16 mg/mL epo D in 10% Tween 80, 50% ethanol, 30% PEG400, 10% propylene glycol, 0.9% saline
[27] = 16 mg/mL epo D in 10% Tween 80, 60% ethanol, 20% PEG400, 10% glycerol
[28] = 16 mg/mL epo D in 10% Tween 80, 60% ethanol, 20% PEG400, 10% glycerol, 0.9% saline
[29] = 20 mg/mL epo D in 10% Tween 80, 50% ethanol, 30% PEG400, 10% propylene glycol
[30] = 20 mg/mL epo D in 10% Tween 80, 50% ethanol, 30% PEG400, 10% propylene glycol, 0.9% saline
[31] = 20 mg/mL epo D in 10% Tween 80, 60% ethanol, 20% PEG400, 10% glycerol
[32] = 20 mg/mL epo D in 10% Tween 80, 60% ethanol, 20% PEG400, 10% glycerol, 0.9% saline
[33] = Table 12: 10 mg/mL epo D in 10% Tween 80, 60% ethanol, 20% PEG400, 10% glycerol
[34] = Table 13: 10 mg/mL epo D in 10% Tween 80, 50% ethanol, 30% PEG400, 10% propylene glycol

C/C1=C/CC(/C(C)=C/c2csc(C)n2)OC(=O)C[C@H](O)C(C)(C)C(=O)[C@H](C)[C@@H](O)[C@@H](C)CCC1 (some centres unmarked) [Epothilone D, Desoxyepothilone B]
clear: Visual Appearance RODI Dilution 1:08 0 h [1] | Visual Appearance RODI Dilution 1:08 24 h [1] | Visual Appearance RODI Dilution 1:10 0 h [1] | Visual Appearance RODI Dilution 1:10 24 h [1] | Visual Appearance RODI Dilution 1:12 0 h [1] | Visual Appearance RODI Dilution 1:12 24 h [1] | Visual Appearance Saline Dilution 1:12 1 h [2] | Visual Appearance Saline Dilution 0 h [3] | Visual Appearance RODI Dilution 0 h [1] | Visual Appearance RODI Dilution 12 h [1] | Visual Appearance RODI Dilution 24 h [1] | Visual Appearance RODI Dilution 36 h [1] | Visual Appearance RODI Dilution 48 h [1] | Visual Appearance Initial [1] | Visual Appearance RODI Dilution 1:08 0 h [4] | Visual Appearance RODI Dilution 1:08 24 h [4] | Visual Appearance RODI Dilution 1:10 0 h [4] | Visual Appearance RODI Dilution 1:10 24 h [4] | Visual Appearance RODI Dilution 1:12 0 h [4] | Visual Appearance RODI Dilution 1:12 24 h [4] | Visual Appearance Saline Dilution 1:08 1 h [5] | Visual Appearance Saline Dilution 0 h [6] | Visual Appearance RODI Dilution 0 h [4] | Visual Appearance RODI Dilution 12 h [4] | Visual Appearance RODI Dilution 24 h [4] | Visual Appearance Initial [4] | Visual Appearance Saline Dilution 0 h [7] | Visual Appearance RODI Dilution 0 h [8] | Visual Appearance RODI Dilution 12 h [8] | Visual Appearance RODI Dilution 24 h [8] | Visual Appearance RODI Dilution 36 h [8] | Visual Appearance RODI Dilution 48 h [8] | Visual Appearance Saline Dilution 0 h [9] | Visual Appearance RODI Dilution 0 h [10] | Visual Appearance RODI Dilution 12 h [10] | Visual Appearance RODI Dilution 24 h [10] | Visual Appearance RODI Dilution 1:08 0 h [11] | Visual Appearance RODI Dilution 1:08 24 h [11] | Visual Appearance RODI Dilution 1:10 0 h [11] | Visual Appearance RODI Dilution 1:10 24 h [11] | Visual Appearance RODI Dilution 1:12 0 h [11] | Visual Appearance RODI Dilution 1:12 24 h [11] | Visual Appearance Saline Dilution 0 h [13] | Visual Appearance Saline Dilution 12 h [13] | Visual Appearance Saline Dilution 24 h [13] | Visual Appearance Initial [11] | Visual Appearance RODI Dilution 1:08 0 h [14] | Visual Appearance RODI Dilution 1:08 24 h [14] | Visual Appearance RODI Dilution 1:10 0 h [14] | Visual Appearance RODI Dilution 1:10 24 h [14] | Visual Appearance RODI Dilution 1:12 0 h [14] | Visual Appearance RODI Dilution 1:12 24 h [14] | Visual Appearance Saline Dilution 1:08 1 h [15] | Visual Appearance Saline Dilution 0 h [16] | Visual Appearance Initial [14] | Visual Appearance Saline Dilution 0 h [17] | Visual Appearance RODI Dilution 0 h [18] | Visual Appearance Initial [18] | Visual Appearance Saline Dilution 0 h [19] | Visual Appearance RODI Dilution 0 h [20] | Visual Appearance Initial [20] | Visual Appearance RODI Dilution 1:08 0 h [21] | Visual Appearance RODI Dilution 1:08 24 h [21] | Visual Appearance RODI Dilution 1:10 0 h [21] | Visual Appearance RODI Dilution 1:10 24 h [21] | Visual Appearance RODI Dilution 1:12 0 h [21] | Visual Appearance Initial [21] | Visual Appearance RODI Dilution 1:08 0 h [23] | Visual Appearance RODI Dilution 1:08 24 h [23] | Visual Appearance RODI Dilution 1:10 0 h [23] | Visual Appearance RODI Dilution 1:10 24 h [23] | Visual Appearance RODI Dilution 1:12 0 h [23] | Visual Appearance Initial [23] | Visual Appearance Initial [25] | Visual Appearance Initial [27] | Visual Appearance Initial [29] | Visual Appearance Initial [31] | Visual Appearance Initial (Table 12: 8 mg/mL epo D in 10% Tween 80, 60% ethanol, 20% PEG400, 10% glycerol) | Visual Appearance Initial (Table 12: 9 mg/mL epo D in 10% Tween 80, 60% ethanol, 20% PEG400, 10% glycerol) | Visual Appearance RODI Dilution 0 h [33] | Visual Appearance RODI Dilution 12 h [33] | Visual Appearance RODI Dilution 24 h [33] | Visual Appearance RODI Dilution 36 h [33] | Visual Appearance Initial [33] | Visual Appearance Initial (Table 13: 8 mg/mL epo D in 10% Tween 80, 50% ethanol, 30% PEG400, 10% propylene glycol) | Visual Appearance Initial (Table 13: 9 mg/mL epo D in 10% Tween 80, 50% ethanol, 30% PEG400, 10% propylene glycol) | Visual Appearance RODI Dilution 0 h [34] | Visual Appearance RODI Dilution 12 h [34] | Visual Appearance RODI Dilution 24 h [34] | Visual Appearance RODI Dilution 36 h [34] | Visual Appearance RODI Dilution 48 h [34] | Visual Appearance Initial [34]
xtal: Visual Appearance Saline Dilution 1:08 1 h [2] | Visual Appearance Saline Dilution 1:10 1 h [2] | Visual Appearance Saline Dilution 1:12 24 h [2] | Visual Appearance Saline Dilution 12 h [3] | Visual Appearance Saline Dilution 1:08 24 h [5] | Visual Appearance Saline Dilution 1:10 1 h [5] | Visual Appearance Saline Dilution 1:12 1 h [5] | Visual Appearance Saline Dilution 12 h [6] | Visual Appearance RODI Dilution 36 h [4] | Visual Appearance Saline Dilution 12 h [7] | Visual Appearance Saline Dilution 12 h [9] | Visual Appearance RODI Dilution 36 h [10] | Visual Appearance Saline Dilution 1:08 1 h [12] | Visual Appearance Saline Dilution 1:10 1 h [12] | Visual Appearance Saline Dilution 1:12 1 h [12] | Visual Appearance Saline Dilution 36 h [13] | Visual Appearance Saline Dilution 1:08 24 h [15] | Visual Appearance Saline Dilution 1:10 1 h [15] | Visual Appearance Saline Dilution 1:12 1 h [15] | Visual Appearance Saline Dilution 12 h [16] | Visual Appearance Saline Dilution 12 h [17] | Visual Appearance RODI Dilution 12 h [18] | Visual Appearance Saline Dilution 12 h [19] | Visual Appearance RODI Dilution 12 h [20] | Visual Appearance RODI Dilution 1:12 24 h [21] | Visual Appearance Saline Dilution 1:08 1 h [22] | Visual Appearance Saline Dilution 1:10 1 h [22] | Visual Appearance Saline Dilution 1:12 1 h [22] | Visual Appearance RODI Dilution 1:12 24 h [23] | Visual Appearance Saline Dilution 1:08 1 h [24] | Visual Appearance Saline Dilution 1:10 1 h [24] | Visual Appearance Saline Dilution 1:12 1 h [24] | Visual Appearance RODI Dilution 48 h [33]
ppt: Visual Appearance RODI Dilution 1:08 0 h [25] | Visual Appearance RODI Dilution 1:10 0 h [25] | Visual Appearance RODI Dilution 1:12 0 h [25] | Visual Appearance Saline Dilution 1:08 1 h [26] | Visual Appearance Saline Dilution 1:10 1 h [26] | Visual Appearance Saline Dilution 1:12 1 h [26] | Visual Appearance RODI Dilution 1:08 0 h [27] | Visual Appearance RODI Dilution 1:10 0 h [27] | Visual Appearance RODI Dilution 1:12 0 h [27] | Visual Appearance Saline Dilution 1:08 1 h [28] | Visual Appearance Saline Dilution 1:10 1 h [28] | Visual Appearance Saline Dilution 1:12 1 h [28] | Visual Appearance RODI Dilution 1:08 0 h [29] | Visual Appearance RODI Dilution 1:10 0 h [29] | Visual Appearance RODI Dilution 1:12 0 h [29] | Visual Appearance Saline Dilution 1:08 1 h [30] | Visual Appearance Saline Dilution 1:10 1 h [30] | Visual Appearance Saline Dilution 1:12 1 h [30] | Visual Appearance RODI Dilution 1:08 0 h [31] | Visual Appearance RODI Dilution 1:10 0 h [31] | Visual Appearance RODI Dilution 1:12 0 h [31] | Visual Appearance Saline Dilution 1:08 1 h [32] | Visual Appearance Saline Dilution 1:10 1 h [32] | Visual Appearance Saline Dilution 1:12 1 h [32]
